Laboratory results from patent US20170266166A1, “Compositions and Methods to Inhibit Estrogen Receptor Beta for the Treatment of Renal Cell Carcinoma” (University of Rochester, priority 2014, published 2017).

Experiments:
[1] = tested on: 786-O cells; test: transwell RCC cell migration assay; format: cell-based, human; settings: for cell migration: 10 nM
[2] = tested on: A498 cells; test: transwell RCC cell migration assay; format: cell-based, human
[3] = tested on: 786-O cells; test: RCC cell growth, MTT assay; format: cell-based, human; settings: 10 nM, 786-O (high endogenous ERβ), MTT and colony forming assays
Procedure: (§1) FIG. 2, comprising FIGS. 2A-2F, depicts the results of experiments comparing ERβ expression in RCC cell lines and estrogen/ERβ effects on RCC cell growth. […] Expression of ERα was not detected in tested RCC cells. ERβ has the highest expression level in 786-O and lowest in A498. Breast cancer cell MCF-7 was used as a positive control. […] The growth rate of 786-O cells (with high endogenous ERβ) is increased in the presence of 17β-estradiol (10 nM) as compared with the control Etoh). […] FIGS. 2D-2E show changes in ERβ expression levels can affect the RCC cell growth. A lentivirus system was used to knock-down ERβ in RCC 786-O cells (by lenti-ERβ-shRNA), or to increase ERβ in A498 cells (by lenti-ERβ cDNA). Cell growth rates were determined by MTT assay.
(§2) RCC cells were seeded in 24-well plates (5000 cells/200 μl medium per well) and cultured for 0, 2, 4 and 6 days. Cells were harvested and cell number was calculated using MTT agent.
(§3) To examine the ERβ roles on RCC cell growth, the lentiviral ERβ cDNA and shRNA were used to change the expression of ERβ in 2 RCC cell lines, A498 (low endogenous ERβ) and 786-O (high endogenous ERβ), respectively. 10 nM […] estradiol (E2) was used to activate ERβ and examine the growth changes using MTT assay and colony forming assays. […] Supportively, knocking-down ERβ by ERβ-siRNA in RCC 786-O cells suppressed cell growth, sh-Luciferase as control (FIG. 2D). […]

[4] = tested on: A498 cells; test: RCC cell growth, MTT assay; format: cell-based, human; settings: 10 nM, A498 (little ERβ)
Procedure: as §1, §2, §3

[5] = tested on: 786-O tumors; test: anti-estrogen treatment of mice carrying 786-O RCC tumors (IVIS imaging, tumor weight, metastasis); format: in vivo; settings: for mice that developed distal metastasis: ip injection every other day, after 4 weeks of treatments, 3 of the 6 DMSO treated mice developed metastasis; for RCC tumor growth and metastasis (IVIS imaging, tumor weights): mouse RCC model, result in words
Description: Results of IVIS imaging, tumor size, and tumor weights are shown and compared.
The Fe-NTA transformed human renal carcinoma cell lines 7860.sh-ERβ/7860.sh-Luc and A498 hERβ/Vec were directly injected into the renal capsule of nude mice. After anesthesia, the back skin was lifted with a pair of blunt forceps and cut along the midline with a pair of scissors creating an incision approximately an inch in length; the dermis was separated from the underlying body wall on both sides of the incision for bilateral grafting or on one side only (blunt dissection). The animal was placed on its side, and the location of the kidney identified by viewing it through the body wall. A small incision ([…]) was made in the body wall just slightly longer than the long axis of the kidney. The exteriorized kidney was allowed to rest on the body wall. We used a syringe to inject the cells at the cell numbers of 1×10^6, both with matrigel (1:1) under the renal capsule.
ERβ antagonists, PHTPP and ICI, inhibit RCC cell growth and cell invasion Knockdown of ERβ reduced RCC cells growth and Invasion. It was then investigated whether PHTPP (ERβ selective antagonist) and ICI 182,780 (ICI, anti-estrogen) have therapeutic effects to reduce RCC tumor growth and metastasis in vivo. […] Also, both anti-estrogens have been used to treat mouse breast cancer models. The same doses of PHTPP and ICI were applied in mice carrying 786-O tumors DMSO (mock control), PHTPP and ICI were administrated via intraperitoneal (ip) injection every other day. IVIS imaging was applied to monitor tumor growth and distal metastasis. After 4 weeks of treatments, mice were sacrificed for tumor analysis. […] All the mice had developed RCC by the time they were sacrificed. […] In addition to PHTPP and ICI, tamoxifen was also tested on mouse RCC growth.

[6] = target: ERβ (Homo sapiens, UniProt Q92731); settings: 10 μM, previous reports; cited from earlier work
Chain of ERβ (Q92731 whole entry): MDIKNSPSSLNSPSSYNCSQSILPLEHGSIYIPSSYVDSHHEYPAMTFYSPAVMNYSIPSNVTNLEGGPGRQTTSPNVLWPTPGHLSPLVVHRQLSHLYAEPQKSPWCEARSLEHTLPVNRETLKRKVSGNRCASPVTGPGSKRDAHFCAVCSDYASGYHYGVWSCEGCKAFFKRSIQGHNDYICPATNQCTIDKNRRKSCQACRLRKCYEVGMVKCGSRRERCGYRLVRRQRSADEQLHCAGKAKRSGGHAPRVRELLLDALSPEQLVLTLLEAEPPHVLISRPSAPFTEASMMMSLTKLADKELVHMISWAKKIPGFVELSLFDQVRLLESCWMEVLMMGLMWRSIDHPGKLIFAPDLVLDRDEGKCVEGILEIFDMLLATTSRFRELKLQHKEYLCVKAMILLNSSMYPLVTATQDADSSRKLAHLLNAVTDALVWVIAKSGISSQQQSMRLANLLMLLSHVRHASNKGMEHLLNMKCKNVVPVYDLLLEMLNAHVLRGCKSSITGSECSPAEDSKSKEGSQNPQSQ

[7] = tested on: 786-O cells; test: transwell matrigel RCC cell invasion assay; format: cell-based, human; settings: 10 μM
Procedure: (§4) The migration or invasion capability of RCC cells was determined using the transwell assay. In brief, 1×105 (invasion)/2-5×104 (migration) cells were harvested and seeded with serum-free media into the upper chamber with or without coated Matrigel with (BD Corning). The migrated or invaded cells were fixed by 4% paraformaldehyde and stained with 1% toluidine blue. Cell numbers were counted in five randomly chosen microscopic fields (100×) per membrane. When necessary, cells were treated with 10 μM of TGFβR-1 inhibitor (SB525334 Selleckchem) for 48 hr.
(§5) To further validate the ERβ→TGFβ1→pSMAD3 pathway, an interruption approach was applied by using TGFβR-1 inhibitors (10 μM) for the cell invasion assay in both 786-O and A498 cells (FIG. 5D).

[8] = tested on: A498 cells; test: transwell matrigel RCC cell invasion assay; format: cell-based, human; settings: 10 μM
Procedure: as §4, §5

[9] = tested on: pSMAD3; test: Western blot after TGFβR-1 inhibitor treatment; format: cell-based, human; settings: after treatment of TGFβR-1 inhibitor, FIG. 5D
Procedure: FIG. 5E illustrates the experimental setting for treatment of RCC with TGFβR-1 inhibitor and migration. RCC cells were cultured for 48 hr and then treated with 10 μM TGFβR-1 inhibitor for 6 hr. RCC cells were then trypsinized and seeded in the upper transwell (5×10^4/well) for 24 hr to determine the migration rate. […] Quantification of migrated cells was shown on the right panel.
The expressions of ERs were determined by the Western blot according to the previous study (Hsu et al., Carcinogenesis, 2014, 35:651-61). Rabbit anti-ERβ polyclonal antibody (GTX 110607 GeneTex Corporation), mouse anti-GAPDH monoclonal antibody (Santa Cruz Biotechnology), rabbit anti-TGFB1 polyclonal antibody (Abcam Biotechnology), and mouse anti-SMAD3 monoclonal antibody (Abcam Biotechnology) were all used and all at 1:1,000 dilution in blocking buffer. The immunopositive bands were visualized with an ECL chemiluminescent detection system (Thermo Scientific, Rockford, Ill.), and the images were transferred to the Bio-rad imaging system. The Western analysis was scored positive if the band of interest was present at the expected molecular weight appropriate for each marker protein. All analyses were done in duplicate.
as §5

[10] = tested on: advanced RCC; settings: 1990's clinical trials; cited from earlier work
[11] = mice carrying 786-O tumors, ip every other day, 4 weeks

Compound: C[C@]12CC[C@@H]3c4ccc(O)cc4CC[C@H]3[C@@H]1CC[C@@H]2O [E2, 17β-estradiol]
- cell migration ([1]; 786-O sh-Luc control cells): could enhance
- cell migration ([1]; ERβ knockdown 786-O cells (786-O-shERβ)): little effect
- cell migration ([2]; 10 nM, A498-ERβ cells): further stimulated the migration
- cell growth [3]: significantly enhanced the cell growth
- cell growth [4]: little E2 stimulating effect

Compound: C[C@]12CC[C@@H]3c4ccc(O)cc4C[C@@H](CCCCCCCCC[S+]([O-])CCCC(F)(F)C(F)(F)F)[C@H]3[C@@H]1CC[C@@H]2O (stereo partly drawn) [ICI 182,780, 7α-[9-(4,4,5,5,5-pentafluoropentylsulfinyl)nonyl]estra-1,3,5(10)-triene-3,17β-diol]
- body weights versus control [5, 11]: higher body weights than control
- mice that developed distal metastasis ([5]; mice carrying 786-O tumors): around 17%
- RCC tumor growth and metastasis (IVIS imaging, tumor weights) ([5]; in vivo): inhibit the RCC tumor growth and metastasis
- signs of toxicity or adverse treatment side effects ([5]; mouse, in vivo, ip): without any signs of toxicity or adverse treatment side effects
- estrogen induced ERβ transactivation on EREluciferase reporter activity [6]: effectively inhibit

Compound: Oc1ccc(-c2c(-c3ccccc3)nn3c(C(F)(F)F)cc(C(F)(F)F)nc23)cc1 [PHTPP]
- body weights versus control [5, 11]: higher body weights than control
- signs of toxicity or adverse treatment side effects [5, 11]: without any signs of toxicity or adverse treatment side effects
- mice that developed distal metastasis ([5]; mice carrying 786-O tumors): around 17%
- RCC tumor growth and metastasis (IVIS imaging, tumor weights) ([5]; in vivo): inhibit the RCC tumor growth and metastasis
- estrogen induced ERβ transactivation on EREluciferase reporter activity [6]: effectively inhibit

Compound: Cc1cccc(-c2[nH]c(C(C)(C)C)nc2-c2ccc3nccnc3c2)n1 [TGFβR-1 inhibitor]
- migration ability ([1]; 10 μM for 48 hr, 786-O sh-Luc (higher ERβ)): dramatically attenuated
- ERβ-enhanced invasion [7]: suppression of ERβ-enhanced invasion
- ERβ-enhanced invasion [8]: suppression of ERβ-enhanced invasion
- migration ability ([2]; 10 μM for 48 hr, A498 ERβ (higher ERβ)): dramatically attenuated
- pSMAD3 level by Western blot [9]: reduced pSMAD3

Compound: CC/C(=C(\c1ccccc1)c1ccc(OCCN(C)C)cc1)c1ccccc1 [tamoxifen]
- therapeutic efficacy in advanced RCC [10]: no significant therapeutic efficacy
- inhibition of tumor size compared to the control group ([5]; RCC in vivo, FIG. 9): about 40%
- efficacy to inhibit ERβ activity ([5]; compared to ICI 182,780 and PHTPP, FIG. 9): ~40%
- RCC tumor growth and metastasis (IVIS imaging, tumor weights) ([5]; in vivo): less effective on inhibiting RCC tumor
